± gives the expanded uncertainty stated by the source.
How the values were obtained:
[1] = refractive index (Na D-line) (dimensionless); settings: 298.15 K; 101.33 kPa; Liquid; Standard Abbe refractometry
[2] = 298.15 K, 101.33 kPa, Liquid

| Compound | refractive index [1] | mass density [2] [kg/m3] | mass density ([2]; Pycnometric method) [kg/m3] |
| --- | --- | --- | --- |
| COC(=O)OC [dimethyl carbonate] | 1.3672 ± 0.0008 | 1063.33 ± 1.3 |  |
| CO [methanol] | 1.3262 ± 0.0007 |  | 786.49 ± 0.71 |
